Assay results from patent US20230331655A1, “HYDROXYN[…] AND METHODS OF USE THEREOF” (UNIVERSITY OF MARYLAND, BALTIMORE, priority 2020, published 2023).

Experiments:
[1] = pharmacokinetics in plasma and brain after intraperitoneal administration (UPLC-MS/MS); format: in vivo, mouse; design: key to Brain Concentration over time, sex-dependent difference / Plasma Concentration over time, sex-dependent difference: F, female; M, male; NS, not statistically different; conditions: i.p. 5 mg/kg; for t1/2 Brain / t1/2 Plasma: terminal half-life; for Brain Concentration over time, sex-dependent difference / Plasma Concentration over time, sex-dependent difference / Brain Total exposure (AUC), sex-dependent difference / Plasma Total exposure (AUC), sex-dependent difference: female vs male mice; for Brain Concentration over time, sex-dependent difference / Plasma Concentration over time, sex-dependent difference: ANOVA, Holm-Šídák post-hoc; for Brain Total exposure (AUC), sex-dependent difference / Plasma Total exposure (AUC), sex-dependent difference: t-test; for brain concentration at 4 h post-treatment: LLOQ 5.0 ng/ml
Protocol: Male and female CD-1 mice (Charles Rivers Laboratories, Raleigh, NC, USA), 8-11 weeks old at the time of testing, were habituated to the University of Maryland (Baltimore, MD, USA) animal facility for at least one week prior to testing. Mice were group housed 4-5 per cage with a constant 12-hour light cycle (lights on/off at 07:00/19:00). Food and water were available ad libitum. All experiments were performed during the light phase. All animal studies were approved by the University of Maryland School of Medicine Institutional Animal Care and Use Committee and conducted in accordance with the National Institutes of Health Guide for the Care and Use of Laboratory Animals.
(2R,6R)-HNK hydrochloride, (2S,6S)-HNK hydrochloride, (2R,6S)-HNK, (2S,6R)-HNK, (2R,5R)-HNK, (2S,5S)-HNK, (2R,5S)-HNK, (2S,5R)-HNK, (2R,4R)-HNK, (2S,4S)-HNK, (2R,4S)-HNK, and (2S,4R)-HNK hydrochloride were synthesized at the National Center for Advancing Translation Sciences (National Institutes of Health, Rockville, MD, USA) using methods previously described in Morris et al., Org Lett 17:4572-4575 (2017), which is incorporated by reference herein in its entirety. (5R)-methyl-(2R,6R)-HNK was obtained from Organix Inc. (Woburn, MA, USA) or from the National Center for Advancing Translational Sciences (Rockville, MD, USA); synthesis and characterization are described in the Supplemental Information. All compounds were dissolved in 20% (w/v) cyclodextrin (Sigma Aldrich, USA) in saline and administered intraperitoneally (i.p.) in a volume of 7.5 ml/kg.
At 10 min (0.167 h), 30 min (0.5 h), 1 h, 2 h, and 4 h post-treatment, mice were deeply anesthetized (3.5% isoflurane for approximately 2 min). Trunk blood was collected into 1.5-ml polypropylene tubes containing 30 μl of disodium EDTA (0.5 M, pH 8.0) and kept on ice until plasma collection (<30 min). Brains were then removed, flash-frozen in isopentane, and stored at −80° C. until analysis. Blood was centrifuged at 8000×g for 6 min at 4° C. to obtain plasma. Plasma was collected into clean microcentrifuge tubes and stored at −80° C. until analysis.
Ultra-performance liquid chromatography-tandem mass spectrometry (UPLC-MS/MS) methods were developed and optimized to determine the concentration of each HNK in mouse plasma and brain samples following systemic administration. Mass spectrometric analysis was performed on a Waters Xevo TQ-S triple quadrupole instrument using electrospray ionization in positive mode with the selected reaction monitoring. The separation of HNKs from endogenous components was performed on a Waters Acquity UPLC with 0.5 ml/min flow rate and gradient elution. The mobile phase A and B were 0.1% formic acid in water and 0.1% formic acid in acetonitrile, respectively. Plasma and brain concentrations of (2R,6R)-, (2S,6S)-, (2R,4S)-, and (2S,4R)-HNK were determined by hydrophilic interaction liquid chromatography-tandem mass spectrometry (HILIC UPLC-MS/MS) using a BEH amide column (1.7μ, 2.1×50 mm). Plasma and brain concentrations of (2R,6S)-, (2S,6R)-, (2R,5R)- (2S,5S)-, (2R,5S)-, (2S,5R)-, (2R,4R)-, and (2S,4S)-HNK; and (5R)-methyl-(2R,6R)-HNK were determined by reversed phase UPLC-MS/MS based upon a previously described protocol with several modifications using a BEH C18 column ([…], 2.1×50 mm). See Moaddel et al., Talanta 82:1892-1904 (2010), and Zanos et al., Nature 533:481-486 ([…]), both of which are incorporated by reference herein in their entireties.
The gradient for HILIC UPLC method was: 0-0.2 min 98% B; 0.2-1.4 min 98% to 35% B; 1.4-1.8 min 35% to 10% B, 1.9-2.4 min 98% B. The gradient for BEH Cis UPLC method was: 0-0.2 min 1% B; 0.2-1.4 min 1% to 35% B; 1.4-1.8 min 35% to 98% B, 1.8-2.2 min 98% B, 2.3 min 1% B. The analytical run time of the UPLC methods was 2.5 min. The calibration standards and quality control samples were prepared in blank mouse plasma and brain homogenate. Calibration standards ranged from 5.0-5000 ng/ml. […]

NMDARs = conditions: read-out: Ki (binding / inhibition of NMDARs); cited from earlier work

Compound	B:P ratio (brain to plasma AUC ratio) ([1]; female mice)	t1/2 Brain ([1]; female mice) [min]	t1/2 Plasma ([1]; female mice) [min]	Brain Concentration over time, sex-dependent difference [1]	Plasma Concentration over time, sex-dependent difference [1]	Brain Total exposure (AUC), sex-dependent difference [1]	Plasma Total exposure (AUC), sex-dependent difference [1]	B:P ratio (brain to plasma AUC ratio) ([1]; male mice)	Tmax in the brain ([1]; male mice) [min]	t1/2 Brain ([1]; male mice) [min]	t1/2 Plasma ([1]; male mice) [min]	brain concentration at 4 h post-treatment ([1]; females, but not males)	Tmax in the brain ([1]; female mice) [min]	brain concentration at 4 h post-treatment ([1]; both sexes)	Ki (NMDARs) [nM]
N[C@@]1(c2ccccc2Cl)C[C@H](O)CCC1=O [(2R,4R)-HNK]	1.2	30	30	F > M at 10 min	F > M at 10 min	M > F	M > F	1.3	30	36	36	–	–	–	–
N[C@@]1(c2ccccc2Cl)C[C@@H](O)CCC1=O [(2R,4S)-HNK]	1.0	18	42	M > F at 10, 30, 60 min	M > F at 10, 30 min	M > F	M > F	1.1	–	30	36	below LLOQs	–	–	–
N[C@@]1(c2ccccc2Cl)CC[C@@H](O)CC1=O [(2R,5R)-HNK]	1.4	30	30	NS	main effect of sex, M > F	–	M > F	1.2	–	24	30	–	–	–	–
N[C@@]1(c2ccccc2Cl)CC[C@H](O)CC1=O [(2R,5S)-HNK]	1.0	30	30	F > M at 10, 30 min	F > M at 10, 30 min	F > M	F > M	0.9	–	30	30	–	30	–	–
N[C@]1(c2ccccc2Cl)C[C@H](O)CCC1=O [(2S,4R)-HNK]	1.0	18	24	F > M at 10 min	F > M at 10 min	–	–	0.9	–	24	30	–	–	below LLOQs	–
N[C@]1(c2ccccc2Cl)C[C@@H](O)CCC1=O [(2S,4S)-HNK]	0.9	36	42	F > M at 10, 30 min	F > M at 10, 30 min	F > M	F > M	0.7	–	36	42	–	–	–	–
N[C@]1(c2ccccc2Cl)CC[C@@H](O)CC1=O [(2S,5R)-HNK]	1.0	30	30	NS	M > F at 30, 60 min	M > F	M > F	0.7	30	42	36	–	–	–	–
N[C@]1(c2ccccc2Cl)CC[C@H](O)CC1=O [(2S,5S)-HNK]	1.3	18	36	NS	NS	–	–	1.2	–	18	30	–	–	below LLOQs	–
CNC1(c2ccccc2Cl)CCCCC1=O (stereo not shown) [ketamine, reference compound]	–	–	–	–	–	–	–	–	–	–	–	–	–	–	250 to 1060
